Patent US20220259196A1, “2-AMINOPYRIMIDINE COMPOUND AND USES THEREOF” (Shenyang Pharmaceutical University, priority 2019, published 2022)

Assays:
FLT3 = biological target: T1, FLT3 (Homo sapiens, UniProt P36888); assay: in vitro FLT3 kinase activity test, Mobility Shift Assay; format: biochemical; details: compound concentration 0.1 μM; read-out: Percentage of inhibition against FLT3 at 0.1 μM
T1 sequence (P36888 27-993): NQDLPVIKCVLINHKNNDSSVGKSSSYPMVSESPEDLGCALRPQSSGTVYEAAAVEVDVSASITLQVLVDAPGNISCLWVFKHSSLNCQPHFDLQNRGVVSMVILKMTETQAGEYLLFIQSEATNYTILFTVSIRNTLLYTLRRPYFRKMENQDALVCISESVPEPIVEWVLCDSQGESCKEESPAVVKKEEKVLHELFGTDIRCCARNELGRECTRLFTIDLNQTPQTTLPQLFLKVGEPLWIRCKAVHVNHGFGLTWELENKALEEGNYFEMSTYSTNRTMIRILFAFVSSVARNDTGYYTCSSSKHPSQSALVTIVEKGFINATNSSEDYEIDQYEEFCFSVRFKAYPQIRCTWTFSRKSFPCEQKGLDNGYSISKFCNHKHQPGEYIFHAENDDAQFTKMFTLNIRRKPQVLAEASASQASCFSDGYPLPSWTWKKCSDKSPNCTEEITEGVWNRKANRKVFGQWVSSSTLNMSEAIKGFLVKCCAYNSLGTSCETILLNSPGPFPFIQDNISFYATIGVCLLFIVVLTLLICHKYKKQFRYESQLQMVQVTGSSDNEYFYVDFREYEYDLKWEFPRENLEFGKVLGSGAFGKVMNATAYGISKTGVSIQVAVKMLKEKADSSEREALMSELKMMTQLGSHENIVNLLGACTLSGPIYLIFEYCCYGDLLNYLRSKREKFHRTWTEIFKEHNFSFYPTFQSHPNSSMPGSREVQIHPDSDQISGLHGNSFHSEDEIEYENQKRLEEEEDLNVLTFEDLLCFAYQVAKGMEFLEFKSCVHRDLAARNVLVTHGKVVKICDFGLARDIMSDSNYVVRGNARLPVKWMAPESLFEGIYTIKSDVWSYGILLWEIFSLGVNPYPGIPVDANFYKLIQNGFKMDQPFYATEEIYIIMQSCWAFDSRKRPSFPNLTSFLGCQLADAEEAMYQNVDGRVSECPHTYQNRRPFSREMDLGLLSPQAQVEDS
Method: (§1) The in vitro JAK2 and FLT3 kinase activity test was performed on the compounds of the 2-aminopyrimidine backbone of the above formula I (concentration 0.1 μM) according to the present invention using Mobility Shift Assay.
(§2) The kinase buffer was composed of 50 mM HEPEs (pH 7.5) and 0.0015% BRIJ-35. The stop buffer contained a mixture of 100 mM HEPES (pH 7.5), 0.015% BRIJ-35, 0.2% coating reagent #3 and 50 mM EDTA. The compound to be tested was diluted with 100% DMSO to 50 times the highest concentration required in the reaction. The dilution of compound to be tested (100 μL) was transferred to the wells of a 96-well plate. […] was added to two wells of the plate as a control group and the plate was marked as the source plate. 10 μL of compound was transferred from the source plate to a new 96-well plate to prepare an intermediate plate. In the intermediate plate, an additional 90 μL of kinase buffer was added to each well. The intermediate plate was shaken for 10 minutes, and then 5 μL of each well of the 96-well intermediate plate was copied to a 384-well plate as an analysis plate. The prepared enzyme solution was added to each well of the 384-well plate, then incubated at room temperature for 10 minutes, and then 10 μL of the prepared peptide solution (FAM-labeled peptide and ATP in kinase-based buffer) was added. The sample was incubated at 28° C. for 1 hours, and then 25 μL of buffer was added. The conversion data from the Caliper program was copied and converted to the inhibition rate.
(§3) Inhibition rate (%)=(max−conversion)/(max−min)×100.

JAK2 = JAK2 (Homo sapiens, UniProt O60674); assay: in vitro JAK2 kinase activity test, Mobility Shift Assay; format: biochemical; details: compound concentration 0.1 μM; read-out: Percentage of inhibition against JAK2 at 0.1 μM
Chain of JAK2 (O60674 whole entry): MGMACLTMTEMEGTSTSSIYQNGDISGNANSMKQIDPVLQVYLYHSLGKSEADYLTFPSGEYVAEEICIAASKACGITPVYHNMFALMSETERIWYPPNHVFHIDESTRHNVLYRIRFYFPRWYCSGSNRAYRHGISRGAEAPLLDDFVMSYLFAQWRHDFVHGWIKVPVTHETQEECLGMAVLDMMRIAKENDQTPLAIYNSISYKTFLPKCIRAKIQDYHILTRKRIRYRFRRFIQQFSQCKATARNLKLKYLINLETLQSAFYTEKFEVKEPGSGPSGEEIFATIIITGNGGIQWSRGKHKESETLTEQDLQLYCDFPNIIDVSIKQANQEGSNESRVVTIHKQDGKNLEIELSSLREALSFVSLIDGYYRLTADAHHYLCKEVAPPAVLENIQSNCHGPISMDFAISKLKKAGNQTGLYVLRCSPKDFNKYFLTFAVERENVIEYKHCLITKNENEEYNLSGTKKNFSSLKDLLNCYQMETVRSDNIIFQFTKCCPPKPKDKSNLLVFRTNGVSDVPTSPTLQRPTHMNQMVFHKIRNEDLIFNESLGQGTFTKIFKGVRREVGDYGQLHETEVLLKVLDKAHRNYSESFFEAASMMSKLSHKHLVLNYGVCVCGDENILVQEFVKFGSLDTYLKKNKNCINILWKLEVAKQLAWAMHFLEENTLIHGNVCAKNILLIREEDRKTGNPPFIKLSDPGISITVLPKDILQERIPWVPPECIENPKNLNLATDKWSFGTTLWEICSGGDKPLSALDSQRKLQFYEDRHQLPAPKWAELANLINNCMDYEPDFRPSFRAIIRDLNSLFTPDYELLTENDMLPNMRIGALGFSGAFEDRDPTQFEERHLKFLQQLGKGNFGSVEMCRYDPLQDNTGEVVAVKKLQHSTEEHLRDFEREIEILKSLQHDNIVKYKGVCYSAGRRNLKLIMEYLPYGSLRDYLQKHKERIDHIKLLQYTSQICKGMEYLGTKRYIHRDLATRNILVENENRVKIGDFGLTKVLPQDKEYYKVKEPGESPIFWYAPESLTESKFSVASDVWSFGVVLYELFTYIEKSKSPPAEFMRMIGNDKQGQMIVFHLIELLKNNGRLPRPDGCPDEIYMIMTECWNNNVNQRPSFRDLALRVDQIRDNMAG
Method: as §1, with “Assay. The control compounds Pacritinib and Fedratinib were prepared by our research group.” for “Assay.”
as §2, §3

| inhibition at 0.1 µM (FLT3) | inhibition at 0.1 µM (JAK2) | Compound |
| --- | --- | --- |
| 21.7% | 48.7% | COc1ccc(NC(=O)N2CCN(c3ccnc(Nc4ccc(N5CCOCC5)cc4)n3)CC2)cc1 [Example 1, N-(4-methoxyphenyl)-4-(2-{[4-(morpholin-4-yl)phenyl]amino}pyrimidin-4-yl)piperazine-1-carboxamide] |
| 30.5% | 54.3% | O=C(Nc1ccc(OC(F)(F)F)cc1)N1CCN(c2ccnc(Nc3ccc(N4CCOCC4)cc3)n2)CC1 [Example 2, N-(4-trifluoromethoxyphenyl)-4-(2-{[4-(morpholin-4-yl)phenyl]amino}pyrimidin-4-yl)piperazine-1-carboxamide] |
| 27.4% | 53.3% | CCc1ccc(NC(=O)N2CCN(c3ccnc(Nc4ccc(N5CCOCC5)cc4)n3)CC2)cc1 [Example 3, N-(4-ethylphenyl)-4-(2-{[4-(morpholin-4-yl)phenyl]amino}pyrimidin-4-yl)piperazine-1-carboxamide] |
| 30.8% | 53.7% | O=C(Nc1ccccc1)N1CCN(c2ccnc(Nc3ccc(N4CCOCC4)cc3)n2)CC1 [Example 4, N-phenyl-4-(2-{[4-(morpholin-4-yl)phenyl]amino}pyrimidin-4-yl)piperazine-1-carboxamide] |
| 62.8% | 64.4% | COC(=O)c1ccc(NC(=O)N2CCN(c3ccnc(Nc4ccc(N5CCOCC5)cc4)n3)CC2)cc1 [Example 5, N-(4-methoxyformylphenyl)-4-(2-{[4-(morpholin-4-yl)phenyl]amino}pyrimidin-4-yl)piperazine-1-carboxamide] |
| 84.4% | 79.3% | O=C(Nc1ccc([N+](=O)[O-])cc1)N1CCN(c2ccnc(Nc3ccc(N4CCOCC4)cc3)n2)CC1 [Example 7, N-(4-nitrophenyl)-4-(2-{[4-(morpholin-4-yl)phenyl]amino}pyrimidin-4-yl)piperazine-1-carboxamide] |
| 70.3% | 63.7% | N#Cc1ccc(NC(=O)N2CCN(c3ccnc(Nc4ccc(N5CCOCC5)cc4)n3)CC2)cc1F [Example 8, N-(4-cyano-3-fluorophenyl)-4-(2-{[4-(morpholin-4-yl)phenyl]amino}pyrimidin-4-yl)piperazine-1-carboxamide] |
| 71.2% | 76.3% | NC(=O)c1ccc(NC(=O)N2CCN(c3ccnc(Nc4ccc(N5CCOCC5)cc4)n3)CC2)cc1 [Example 10, N-(4-carbamoylphenyl)-4-(2-{[4-(morpholin-4-yl)phenyl]amino}pyrimidin-4-yl)piperazine-1-carboxamide] |
| 35.8% | 68.1% | CNC(=O)c1ccc(NC(=O)N2CCN(c3ccnc(Nc4ccc(N5CCOCC5)cc4)n3)CC2)cc1 [Example 11, N-(4-methylcarbamoylphenyl)-4-(2-{[4-(morpholin-4-yl)phenyl]amino}pyrimidin-4-yl)piperazine-1-carboxamide] |
| 69.7% | 76% | NS(=O)(=O)c1ccc(NC(=O)N2CCN(c3ccnc(Nc4ccc(N5CCOCC5)cc4)n3)CC2)cc1 [Example 12, N-(4-aminosulfonylphenyl)-4-(2-{[4-(morpholin-4-yl)phenyl]amino}pyrimidin-4-yl)piperazine-1-carboxamide] |
| 70.8% | 73% | CC(=O)Nc1ccc(NC(=O)N2CCN(c3ccnc(Nc4ccc(N5CCOCC5)cc4)n3)CC2)cc1 [Example 13, N-(4-acetylaminophenyl)-4-(2-{[4-(morpholin-4-yl)phenyl]amino}pyrimidin-4-yl)piperazine-1-carboxamide] |
| 85% | 84% | CN1CCN(c2ccc(Nc3nccc(N4CCN(C(=O)Nc5ccc(C(N)=O)cc5)CC4)n3)cc2)CC1 [Example 15, N-(4-carbamoylphenyl)-4-(2-{[4-(4-methylpiperazin-1-yl)phenyl]amino}pyrimidin-4-yl)piperazine-1-carboxamide] |
| 69% | 45% | CC(=O)c1ccc(NC(=O)N2CCN(c3ccnc(Nc4ccc(OCCN5CCCC5)cc4)n3)CC2)cc1 [Example 16, N-(4-acetylphenyl)-4-[2-({4-[2-(pyrrolidin-1-yl)ethoxy]phenyl}amino)pyrimidin-4-yl]piperazine-1-carboxamide] |
| 54% | 53% | CC(=O)c1ccc(NC(=O)N2CCN(c3ccnc(Nc4ccc(N5CCC(C)CC5)cc4)n3)CC2)cc1 [Example 17, N-(4-acetylphenyl)-4-(2-{[4-(4-methylpiperidin-1-yl)phenyl]amino}pyrimidin-4-yl)piperazine-1-carboxamide] |
| 70.6% | 61.7% | CC(=O)c1ccc(NC(=O)N2CCN(c3ccnc(Nc4ccc(OCCN5CCOCC5)cc4)n3)CC2)cc1 [Example 18, N-(4-acetylphenyl)-4-[2-({4-[2-(morpholin-4-yl)ethoxy]phenyl}amino)pyrimidin-4-yl]piperazine-1-carboxamide] |
| 70.9% | 60.9% | CC(=O)c1ccc(NC(=O)N2CCN(c3ccnc(Nc4ccc(OCCCN5CCOCC5)cc4)n3)CC2)cc1 [Example 19, N-(4-acetylphenyl)-4-[2-({4-[3-(morpholin-4-yl)propoxy]phenyl}amino)pyrimidin-4-yl]piperazine-1-carboxamide] |
| 68% | 44% | CC(=O)c1ccc(NC(=O)N2CCN(c3nc(Nc4ccc(N5CCOCC5)cc4)nc4ccsc34)CC2)cc1 [Example 24, N-(4-acetylphenyl)-4-(2-{[4-(morpholin-4-yl)phenyl]amino}thieno[3,2-d]pyrimidin-4-yl)piperazine-1-carboxamide] |
| 67.9% | 22.8% | CC(=O)c1ccc(NC(=O)N2CCN(c3nc(Nc4ccc(N5CCOCC5)cc4)ncc3N)CC2)cc1 [Example 27, N-(4-acetylphenyl)-4-(5-amino-2-{[4-(morpholin-4-yl)phenyl]amino}pyrimidin-4-yl)piperazine-1-carboxamide] |
| 57.3% | 69.3% | CC(=O)c1ccc(NC(=O)N2CCC(Nc3nc(Nc4ccc(N5CCOCC5)cc4)ncc3C)C2)cc1 (stereo not drawn) [Example 28, N-(4-acetylphenyl)-3-[(5-methyl-2-{[4-(morpholin-4-yl)phenyl]amino}pyrimidin-4-yl)amino]pyrrolidine-1-carboxamide] |
| 75.7% | 57.4% | CC(=O)c1ccc(NC(=O)NC2CCN(c3nc(Nc4ccc(N5CCOCC5)cc4)ncc3C)C2)cc1 (stereo not drawn) [Example 29, 1-(4-acetylphenyl)-3-[1-(5-methyl-2-{[4-(morpholin-4-yl)phenyl]amino}pyrimidin-4-yl)pyrrolidin-3-yl]urea] |
| 50% | 21.9% | CC(=O)c1ccc(NC(=O)NC2CN(c3nc(Nc4ccc(N5CCOCC5)cc4)ncc3C)C2)cc1 [Example 31, 1-(4-acetylphenyl)-3-[1-(5-methyl-2-{[4-(morpholin-4-yl)phenyl]amino}pyrimidin-4-yl)azetidin-3-yl]urea] |
